# Measured values from publication PMC8746441, “Design, Synthesis and Preclinical Assessment of ^99mTc-iFAP for In Vivo Fibroblast Activation Protein (FAP) Imaging” (Molecules, 2022).
# Experiments:
# [1] = test system: tumor microenvironment of different types of cancer; experiment: Preliminary clinical SPECT/CT imaging studies; type: in vivo; conditions: preliminary clinical studies in progress, breast, lung, colorectal, gliomas, cervical cancer
# [2] = Radiochemical stability of the radiopharmaceutical after labeling (radio-HPLC/ITLC-SG); type: physicochemical; conditions: 24 h after labeling
# Description: For radiolabeling, the lyophilized formulation was reconstituted with 1 mL of a 0.2 M phosphate buffer and 1 mL of ^99mTcO4Na (740–1110MBq). The reaction was incubated in a block heater for 15 min at 92 °C. The radiochemical purity was 98% as determined by radio-HPLC (Discovery C18; 5 μm particle size; L × I.D. 25 cm × 4.6 mm; linear gradient: 0.1% TFA/water (A) and 0.1% TFA/acetonitrile (B) flow rate of 1 mL/min. A-100% for 3 min, changed to A-50% over 10 min and maintained for 10 min, changed A-30% over 3 min and returned to A-100% over 4 min).
# ITLC-SG (instant thin layer chromatography-silica gel) was also carried out for the assessment of ^99mTc-iFAP radiochemical purity. Three mobile phases were used, the 2-butanone phase was employed for the identification of free ^99mTcO4^− (Rf = 1), where ^99mTc-iFAP, ^99mTc-EDDA/tricine and ^99mTc-colloid remained in the origin (Rf = 0); 0.1 M sodium citrate (pH 5) identified free ^99mTcO4 (Rf = 1) and ^99mTc-EDDA/tricine coligands (Rf = 1), where ^99mTc-iFAP and ^99mTc-colloid remained in the origin (Rf = 0); finally, the third phase was used for the determination of ^99mTc-colloid (Rf = 0) and consisted of ammonium acetate-methanol (1:1 v/v) ( ^99mTcO4^−, ^99mTc-iFAP and ^99mTc-EDDA run with the solvent front; Rf = 1).
# [3] = Human serum stability and protein binding (size-exclusion radio-HPLC); type: in vitro ADME
# Description: The ^99mTc-iFAP (37 MBq, 100 µL, 14 nmol) was incubated at 37 °C with 500 µL of human serum (IST-909c certified human serum sample, Sigma-Aldrich) and diluted in 0.5 mL of a 0.9% NaCl solution. Twenty microliters of the mixture were sampled at 30 min, 3 and 24 h for size-exclusion radio-HPLC analysis using a ProteinPak 300SW Waters column and 0.01M PBS as the mobile phase (1 mL/min). The percentage of recovery (quantification of the radioactivity recovered from the HPLC column) was determined by injecting 20 µL of the ^99mTc-iFAP sample into the HPLC system and 20 µL into a 50 mL volumetric flask, which was filled with 0.01 M PBS (flask 1). The column was eluted with 0.01 M PBS for 50 min (1 mL/min) and the effluent was collected in a 50 mL volumetric flask (flask 2). Aliquots of 1 mL from both flask 1 and flask 2 were measured on an HPGe detector (ORTEC). The percentage of recovery was calculated by dividing the counts in flask 2 by the counts in flask 1 then multiplied by 100.
# [4] = test system: N30 (primary human stromal endometrial cells, FAP positive); experiment: Cellular uptake and internalization; type: cell-based; conditions: 1 h, 37 °C
# Description: The ^99mTc-iFAP uptake and internalization by N30 (FAP +) and fibroblast (FAP −) cells were determined by using 4 × 10^5 cells/500 µL of PBS in test tubes (n = 6). Both cells lines were incubated for 1 h at 37 °C with 10 µL of ^99mTc-iFAP (37 kBq, 0.4 nmol iFAP). After incubation, three washes with 500 µL of PBS were performed by centrifugation (700 g/5 min). By using a crystal scintillation (NaI(Tl)) well-type detector (MNL Inc., Littleton, CO, USA), the radioactivity in the cell pellet was evaluated. A standard volume with the initial activity was used to represent 100%, and the cell uptake activity was assessed with regard to this value. For the evaluation of internalization, the cell pellets were treated at 37 °C for 5 min with 500 µL of an acid glycine solution (0.1 M glycine, pH adjusted to 2.8 with HCl), and centrifuged (700 g/5 min). The cell pellet was incubated with 1 M NaOH for 5 min and centrifuged (700 g/5 min). The radioactivity of the supernatant was calculated as the percentage of internalization with regard to the initial activity of the standard volume as mentioned above.
# [5] = test system: mice with induced Hep-G2 tumors; experiment: Biodistribution and biokinetic models in tumor-bearing mice; type: in vivo; conditions: for Biodistribution, Blood / Biodistribution, Bone / Biodistribution, Heart / Biodistribution, Tumor / Biodistribution, Intestine / Biodistribution, Kidneys / Biodistribution, Liver / Biodistribution, Lung / Biodistribution, Muscle (left thigh) / Biodistribution, Pancreas / Biodistribution, Spleen / Biodistribution, Stomach: i.v.
# Description: The biodistribution studies in Balb-c male mice were carried out in agreement with Official Mexican Norm 062-ZOO-1999. Hep-G2 tumors were induced in mice (n = 15) by subcutaneous injection (right thigh; positive control) of 1 × 10^6 cells suspended in 0.2 mL of phosphate-buffered saline. Killed Klebsiella pneumoniae bacteria (heated for 2 h at […] and verified for absence of growth after culturing), aseptically suspended in 0.2 mL of PBS (1 × 10^6 bacteria), were subcutaneously administered into the left thigh of mice in order to induce inflammation (negative control). After the tumor was visible, ^99mTc-iFAP (50 µL, 18 MBq, 7 nmol of iFAP) was administered intravenously into the tail of each mouse. Three mice were selected for micro-SPECT/CT imaging, whereas the rest were sacrificed to be used in the biodistribution study. The times of evaluation were 15 min, 30 min, 2 h and 24 h. After the mice were sacrificed, the blood and main organs were removed, weighted and their radioactivity measured using a […] detector, in order to calculate the percentage of the injected dose per gram of tissue (%ID/g) by using an initial standard volume (100% of the initial injected activity). Biokinetic models of the four main target tissues/organs (blood, tumor, liver and kidneys) were obtained by fitting ^99mTc-iFAP time-activity curves to functions with two or three exponential terms Equation (2):(2) A(t)=Ae^−at+Be^−bt+Ce^−ct
# [6] = test system: nude mice with induced Hep-G2 lesions; experiment: Micro-SPECT/CT imaging and tumor SUV; conditions: for tumor SUVmax, the mouse shown in Figure 7: one nude mouse; for tumor SUVmax, the mouse shown in Figure 7 / tumor SUVmax: right thigh; for tumor SUVmax: Hep-G2 tumor
# Description: Hep-G2 tumors were induced in mice (n = 15) by subcutaneous injection (right thigh; positive control) of 1 × 10^6 cells suspended in 0.2 mL of phosphate-buffered saline. Killed Klebsiella pneumoniae bacteria (heated for 2 h at 1000 °C and verified for absence of growth after culturing), aseptically suspended in 0.2 mL of PBS (1 × 10^6 bacteria), were subcutaneously administered into the left thigh of mice in order to induce inflammation (negative control). After the tumor was visible, ^99mTc-iFAP (50 µL, 18 MBq, 7 nmol of iFAP) was administered intravenously into the tail of each mouse. Three mice were selected for micro-SPECT/CT imaging, whereas the rest were sacrificed to be used in the biodistribution study. […] After the mice were sacrificed, the blood and main organs were removed, weighted and their radioactivity measured using a Na(Tl) detector, in order to calculate the percentage of the injected dose per gram of tissue (%ID/g) by using an initial standard volume (100% of the initial injected activity). Biokinetic models of the four main target tissues/organs (blood, tumor, liver and kidneys) were obtained by fitting ^99mTc-iFAP time-activity curves to functions with two or three exponential terms Equation (2):(2) A(t)=Ae^−at+Be^−bt+Ce^−ct
# [7] = test system: healthy laboratory Balb-C mice; experiment: Adverse effects of the cold ligand; type: in vivo; conditions: dose of 40 mg/kg
molecule,measurement,setting,value
^99mTc-((R)-1-((6-hydrazinylnicotinoyl)-D-alanyl) pyrrolidin-2-yl) boronic acid [^99mTc-iFAP],sensitivity to detect the tumor microenvironment,[1],high sensitivity
same,radiochemical purity after 24 h of labeling,[2],greater than 97%
same,stability in fresh human serum,"[3]; 30 min, 3 h and 24 h, 37 °C",remained stable
same,99mTc-colloid as activity retained in the column,"[3]; from percentage of recovered activity, size-exclusion HPLC",0.2%
same,transchelation of 99mTc to cysteine,"[3]; human serum, 37 °C",does not occur
same,serum protein binding,"[3]; human serum, 37 °C, 30 min",0.3 ± 0.1%
same,serum protein binding,"[3]; human serum, 37 °C, 3 h",0.9 ± 0.2%
same,radiochemical stability in human serum,"[3]; human serum, 37 °C, 24 h",> 95%
same,serum protein binding,"[3]; human serum, 37 °C, 24 h",2.1 ± 0.3%
same,internalization rate in N30 cells,[4],rather low
same,cellular uptake in N30 compared to fibroblasts,"[4]; human fibroblasts FAP negative control, p < 0.05, n = 6",increased
same,"Biodistribution, Blood",[5]; 15 min,2.07 ± 0.63 %ID/g
same,"Biodistribution, Blood",[5]; 30 min,1.02 ± 0.32 %ID/g
same,"Biodistribution, Blood",[5]; 2 h,0.33 ± 0.05 %ID/g
same,"Biodistribution, Blood",[5]; 24 h,0.01 ± 0.01 %ID/g
same,"Biodistribution, Bone",[5]; 15 min,0.20 ± 0.09 %ID/g
same,"Biodistribution, Bone",[5]; 30 min,0.14 ± 0.06 %ID/g
same,"Biodistribution, Bone",[5]; 2 h,0.13 ± 0.02 %ID/g
same,"Biodistribution, Heart",[5]; 15 min,1.75 ± 0.08 %ID/g
same,"Biodistribution, Heart",[5]; 30 min,0.88 ± 0.23 %ID/g
same,"Biodistribution, Heart",[5]; 2 h,0.19 ± 0.03 %ID/g
same,"Biodistribution, Tumor","[5]; Hep-G2 tumor, 15 min",9.87 ± 1.94 %ID/g
same,"Biodistribution, Tumor","[5]; Hep-G2 tumor, 30 min",7.05 ± 1.13 %ID/g
same,"Biodistribution, Tumor","[5]; Hep-G2 tumor, 2 h",5.18 ± 0.82 %ID/g
same,"Biodistribution, Tumor","[5]; Hep-G2 tumor, 24 h",2.37 ± 0.26 %ID/g
same,tumor fast elimination constant (λeff),"[5]; Hep-G2 tumor, biokinetic model",0.41 h⁻¹
same,tumor slow elimination constant (λeff),"[5]; Hep-G2 tumor, biokinetic model",0.12 h⁻¹
same,"Biodistribution, Intestine",[5]; 15 min,1.42 ± 0.74 %ID/g
same,"Biodistribution, Intestine",[5]; 30 min,0.93 ± 0.14 %ID/g
same,"Biodistribution, Intestine",[5]; 2 h,0.22 ± 0.10 %ID/g
same,"Biodistribution, Kidneys",[5]; 15 min,13.85 ± 2.27 %ID/g
same,"Biodistribution, Kidneys",[5]; 30 min,11.18 ± 1.54 %ID/g
same,"Biodistribution, Kidneys",[5]; 2 h,7.46 ± 1.02 %ID/g
same,"Biodistribution, Kidneys",[5]; 24 h,1.89 ± 0.53 %ID/g
same,"Biodistribution, Liver",[5]; 15 min,2.78 ± 0.42 %ID/g
same,"Biodistribution, Liver",[5]; 30 min,2.14 ± 0.51 %ID/g
same,"Biodistribution, Liver",[5]; 2 h,1.05 ± 0.29 %ID/g
same,"Biodistribution, Liver",[5]; 24 h,0.05 ± 0.03 %ID/g
same,"Biodistribution, Lung",[5]; 15 min,1.11 ± 0.51 %ID/g
same,"Biodistribution, Lung",[5]; 30 min,0.65 ± 0.19 %ID/g
same,"Biodistribution, Lung",[5]; 2 h,0.02 ± 0.01 %ID/g
same,"Biodistribution, Muscle (left thigh)",[5]; 15 min,0.39 ± 0.15 %ID/g
same,"Biodistribution, Muscle (left thigh)",[5]; 30 min,0.31 ± 0.11 %ID/g
same,"Biodistribution, Muscle (left thigh)",[5]; 2 h,0.18 ± 0.06 %ID/g
same,"Biodistribution, Pancreas",[5]; 15 min,0.64 ± 0.10 %ID/g
same,"Biodistribution, Pancreas",[5]; 30 min,0.31 ± 0.12 %ID/g
same,"Biodistribution, Pancreas",[5]; 2 h,0.12 ± 0.04 %ID/g
same,"Biodistribution, Spleen",[5]; 15 min,1.07 ± 0.17 %ID/g
same,"Biodistribution, Spleen",[5]; 30 min,0.82 ± 0.04 %ID/g
same,"Biodistribution, Spleen",[5]; 2 h,0.15 ± 0.05 %ID/g
same,"Biodistribution, Stomach",[5]; 15 min,0.71 ± 0.08 %ID/g
same,"Biodistribution, Stomach",[5]; 30 min,0.39 ± 0.12 %ID/g
same,"Biodistribution, Stomach",[5]; 2 h,0.25 ± 0.03 %ID/g
same,"fraction of radiotracer eliminated from blood, fast phase","[5]; blood, biokinetic model, fast",88.6%
same,"fraction of radiotracer eliminated from blood, slow phase","[5]; blood, biokinetic model, slow",11.4%
same,blood half-life (slow),"[5]; blood, t1/2 = ln2/0.27",154 min
same,blood half-life (fast),"[5]; blood, t1/2 = ln2/2.93",14.4 min
same,"kidney half-life, second phase","[5]; kidneys, t1/2 = ln2/1.54",27 min
same,kidney half-life (fast),"[5]; kidneys, t1/2 = ln2/2.71",15.6 min
same,"fraction of activity eliminated from kidneys, fast phase","[5]; kidneys, triexponential model, fast",49.4%
same,"fraction of activity eliminated from kidneys, second phase","[5]; kidneys, triexponential model, second phase",6.3%
same,"fraction of activity eliminated from kidneys, slow phase","[5]; kidneys, triexponential model, slow",44.3%
same,"tumor SUVmax, the mouse shown in Figure 7",[6]; 30 min,5.6
same,tumor SUVmax,[6]; 30 min after administration,5.0 ± 1.2
same,"tumor SUVmax, the mouse shown in Figure 7",[6]; 24 h,2.4
same,tumor SUVmax,[6]; 24 h after administration,2.7 ± 0.6
same,radiotracer uptake in left thigh with inflammation induced by killed bacteria (negative control),"[6]; micro-SPECT/CT, left thigh",no radiotracer uptake was observed
"C[C@@H](NC(=O)c1ccc(NN)nc1)C(=O)N1CCC[C@H]1B(O)O [iFAP, ((R)-1-((6-hydrazinylnicotinoyl)-D-alanyl)pyrrolidin-2-yl) boronic acid]",adverse effects,[7],did not show adverse effects
